Drawing on patent US20260022142A1, “MACROCYCLIC IMMUNOMODULATORS” (Bristol-Myers Squibb Company, priority 2022, published 2026), this text covers IC50 for twelve compounds.

Bridge positions count the residues as written; N and C are the ends. Square brackets hold non-standard residues; d marks the D form. Peptide text beside a SMILES is read from it. * marks the point of attachment. Tyr(3,5-F2) = N[C@@H](Cc1cc(F)c(O)c(F)c1)C(=O)O; Tyr(3-Cl) = N[C@@H](Cc1ccc(O)c(Cl)c1)C(=O)O; Bip = N[C@@H](Cc1ccc(-c2ccccc2)cc1)C(=O)O; Phe(3-Me) = Cc1cccc(C[C@H](N)C(=O)O)c1; mTyr = N[C@@H](Cc1cccc(O)c1)C(=O)O; Cha = N[C@@H](CC1CCCCC1)C(=O)O; dDab = NCC[C@@H](N)C(=O)O; Carboxymethyl = O=C(O)C*; Orn = NCCC[C@H](N)C(=O)O; Aun = NCCCCCCCCCCC(=O)O; Dab = NCC[C@H](N)C(=O)O; Dap = NC[C@H](N)C(=O)O; AEEA = NCCOCCOCC(=O)O; Ac3c = NC1(C(=O)O)CC1

The target in the assay is T1, PD-1/PD-L1 interaction (PE-labeled human PD-L1-Ig binding to Jurkat cell line over-expressing human PD-1) (Homo sapiens, UniProt Q15116).
T1 construct: expressed in transfected cells; host or cells: Jurkat
T1 sequence (Q15116 25-288): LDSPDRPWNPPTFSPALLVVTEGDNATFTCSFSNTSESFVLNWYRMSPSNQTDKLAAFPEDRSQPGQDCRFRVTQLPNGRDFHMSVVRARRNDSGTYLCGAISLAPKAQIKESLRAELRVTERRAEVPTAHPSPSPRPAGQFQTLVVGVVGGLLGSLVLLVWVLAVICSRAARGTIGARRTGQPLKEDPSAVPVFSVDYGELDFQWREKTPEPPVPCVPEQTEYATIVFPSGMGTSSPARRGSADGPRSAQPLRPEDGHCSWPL
Put plainly: Jurkat-PD-1 Cell Binding High-Content Screening Assay (CBA). The note with it: Jurkat cell line over-expressing human PD-1; PE-labeled PD-L1-Ig 20 nM final; read-out: Jurkat hPD1-PDL1 IC50. In kind it is cell-based. The method in brief: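 Binding of fluorescent PD-L1-Ig (20 nM final) to Jurkat-PD-1 cells was measured by automated imaging after 1 h, following a 2 h compound pre-treatment at 37° C.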
What is called IC50 is the concentration at which inhibition is half-maximal. With `Cc1cccc(C[C@@H]2NC(=O)[C@H](CC(=O)O)NC(=O)[C@H](Cc3ccc(OCC(=O)O)cc3)NC(=O)[C@H](CN)NC(=O)CSC[C@@H](C(=O)N[C@@H](CCN)C(=O)NCCOCCOCC(=O)NCCCCCCCCCCC(=O)O)NC(=O)[C@H](CCCN)NC(=O)[C@H](C(C)C)NC(=O)[C@H](CC3CCCCC3)NC(=O)[C@H](CCN)NC(=O)[C@@H](CC(C)C)NC(=O)[C@H](CCCN)NC(=O)[C@H](Cc3ccc(O)cc3)NC(=O)[C@H](Cc3ccc(-c4ccccc4)cc3)NC(=O)[C@H](Cc3ccc(O)c(Cl)c3)NC2=O)c1` [Compound 2075] ({CH2CO}-[Dap]Y(Carboxymethyl)D[Phe(3-Me)][Tyr(3-Cl)][Bip]Y[Orn][dL][Dab][Cha]V[Orn]C[Dab][AEEA][Aun]-OH; thioether N-14), the half-maximal inhibitory concentration (IC50) came out at 14.3 nM.

Take `Cc1cccc(C[C@@H]2NC(=O)[C@H](CC(=O)O)NC(=O)[C@H](Cc3ccc(OCC(=O)O)cc3)NC(=O)[C@H](CN)NC(=O)CSC[C@@H](C(=O)N[C@@H](CCN)C(=O)NCCOCCOCC(=O)NCCCCCCCCCCC(=O)O)NC(=O)[C@H](CCCN)NC(=O)[C@H](C(C)C)NC(=O)[C@H](CC3CCCCC3)NC(=O)[C@H](CCN)NC(=O)[C@@H](CC(C)C)NC(=O)[C@H](CCCN)NC(=O)[C@H](Cc3ccc(O)cc3)NC(=O)[C@H](Cc3ccc(-c4ccccc4)cc3)NC(=O)[C@H](Cc3cc(F)c(O)c(F)c3)NC2=O)c1` [Compound 2076] ({CH2CO}-[Dap]Y(Carboxymethyl)D[Phe(3-Me)][Tyr(3,5-F2)][Bip]Y[Orn][dL][Dab][Cha]V[Orn]C[Dab][AEEA][Aun]-OH; thioether N-14): the half-inhibitory concentration (IC50) was determined as 8.4 nM.

Take `Cc1cccc(C[C@@H]2NC(=O)[C@H](CC(=O)O)NC(=O)[C@H](Cc3ccc(OCC(=O)O)cc3)NC(=O)[C@H](CN)NC(=O)CSC[C@@H](C(=O)NC3(C(=O)NCCOCCOCC(=O)NCCCCCCCCCCC(=O)O)CC3)NC(=O)[C@H](CCCN)NC(=O)[C@H](C(C)C)NC(=O)[C@H](CC3CCCCC3)NC(=O)[C@H](CCN)NC(=O)[C@@H](CC(C)C)NC(=O)[C@H](CCCN)NC(=O)[C@H](Cc3ccc(O)cc3)NC(=O)[C@H](Cc3ccc(-c4ccccc4)cc3)NC(=O)[C@H](Cc3ccc(O)cc3)NC2=O)c1` [Compound 2077] ({CH2CO}-[Dap]Y(Carboxymethyl)D[Phe(3-Me)]Y[Bip]Y[Orn][dL][Dab][Cha]V[Orn]C[Ac3c][AEEA][Aun]-OH; thioether N-14): the 50% inhibitory concentration (IC50) turned out to be 6.3 nM.

As for `Cc1cccc(C[C@@H]2NC(=O)[C@H](CC(=O)O)NC(=O)[C@H](Cc3ccc(OCC(=O)O)cc3)NC(=O)[C@H](Cc3ccc(OCC(=O)O)cc3)NC(=O)CSC[C@@H](C(=O)NC3(C(=O)NCCOCCOCC(=O)NCCCCCCCCCCC(=O)O)CC3)NC(=O)[C@H](CCCN)NC(=O)[C@H](C(C)C)NC(=O)[C@H](CC3CCCCC3)NC(=O)[C@H](CCN)NC(=O)[C@@H](CC(C)C)NC(=O)[C@H](CCCN)NC(=O)[C@H](Cc3ccc(O)cc3)NC(=O)[C@H](Cc3ccc(-c4ccccc4)cc3)NC(=O)[C@H](Cc3ccc(O)cc3)NC2=O)c1` [Compound 2078] ({CH2CO}-Y(Carboxymethyl)Y(Carboxymethyl)D[Phe(3-Me)]Y[Bip]Y[Orn][dL][Dab][Cha]V[Orn]C[Ac3c][AEEA][Aun]-OH; thioether N-14), the IC50 worked out at 3.9 nM.

Consider `CC(C)C[C@H]1NC(=O)[C@H](CCCN)NC(=O)[C@H](Cc2ccc(O)cc2)NC(=O)[C@H](Cc2ccc(-c3ccccc3)cc2)NC(=O)[C@H](Cc2ccc(O)cc2)NC(=O)[C@H](Cc2cccc(O)c2)NC(=O)[C@H](CC(=O)O)NC(=O)[C@H](Cc2ccc(OCC(=O)O)cc2)NC(=O)[C@H](CN)NC(=O)CSC[C@@H](C(=O)N[C@@H](CCN)C(=O)NCCCCCCCCCCC(=O)O)NC(=O)[C@@H](CCN)NC(=O)[C@H](C(C)C)NC(=O)[C@H](CC2CCCCC2)NC(=O)[C@H](CCN)NC1=O` [Compound 2079] ({CH2CO}-[Dap]Y(Carboxymethyl)D[mTyr]Y[Bip]Y[Orn][dL][Dab][Cha]V[dDab]C[Dab][Aun]-OH; thioether N-14), for which the IC50 worked out at 245 nM.

For `CC(C)C[C@H]1NC(=O)[C@H](CCN)NC(=O)[C@H](Cc2ccc(O)cc2)NC(=O)[C@H](Cc2ccc(-c3ccccc3)cc2)NC(=O)[C@H](Cc2ccc(O)cc2)NC(=O)[C@H](Cc2cccc(O)c2)NC(=O)[C@H](CC(=O)O)NC(=O)[C@H](Cc2ccc(OCC(=O)O)cc2)NC(=O)[C@H](CN)NC(=O)CSC[C@@H](C(=O)N[C@@H](CCN)C(=O)NCCCCCCCCCCC(=O)O)NC(=O)[C@@H](CCN)NC(=O)[C@H](C(C)C)NC(=O)[C@H](CC2CCCCC2)NC(=O)[C@H](CCN)NC1=O` [Compound 2080] ({CH2CO}-[Dap]Y(Carboxymethyl)D[mTyr]Y[Bip]Y[Dab][dL][Dab][Cha]V[dDab]C[Dab][Aun]-OH; thioether N-14), the IC50 is 218 nM.

In the case of `Cc1cccc(C[C@@H]2NC(=O)[C@H](CC(=O)O)NC(=O)[C@H](Cc3ccc(OCC(=O)O)cc3)NC(=O)[C@H](CCCNC(=N)N)NC(=O)CSC[C@@H](C(=O)N[C@@H](CCN)C(=O)NCCCCCCCCCCC(=O)O)NC(=O)[C@H]([C@@H](C)O)NC(=O)[C@H](C(C)C)NC(=O)[C@H](CC3CCCCC3)NC(=O)[C@H](CCN)NC(=O)[C@@H](CC(C)C)NC(=O)[C@H](CCCN)NC(=O)[C@H](Cc3ccc(OCC(=O)O)cc3)NC(=O)[C@H](Cc3ccc(-c4ccccc4)cc3)NC(=O)[C@H](Cc3ccc(O)cc3)NC2=O)c1` [Compound 2081] ({CH2CO}-RY(Carboxymethyl)D[Phe(3-Me)]Y[Bip]Y(Carboxymethyl)[Orn][dL][Dab][Cha]VTC[Dab][Aun]-OH; thioether N-14), the half-inhibitory concentration (IC50) turned out to be 11.7 nM.

As to `Cc1cccc(C[C@@H]2NC(=O)[C@H](CC(=O)O)NC(=O)[C@H](Cc3ccc(OCC(=O)O)cc3)NC(=O)[C@H](CCCNC(=N)N)NC(=O)CSC[C@@H](C(=O)N[C@@H](CCN)C(=O)NCCCCCCCCCCC(=O)O)NC(=O)[C@H](CO)NC(=O)[C@H](C(C)C)NC(=O)[C@H](CC3CCCCC3)NC(=O)[C@H](CCN)NC(=O)[C@@H](CC(C)C)NC(=O)[C@H](CCCN)NC(=O)[C@H](Cc3ccc(OCC(=O)O)cc3)NC(=O)[C@H](Cc3ccc(-c4ccccc4)cc3)NC(=O)[C@H](Cc3ccc(O)cc3)NC2=O)c1` [Compound 2082] ({CH2CO}-RY(Carboxymethyl)D[Phe(3-Me)]Y[Bip]Y(Carboxymethyl)[Orn][dL][Dab][Cha]VSC[Dab][Aun]-OH; thioether N-14), the IC50 stood at 22.7 nM.

For `Cc1cccc(C[C@@H]2NC(=O)[C@H](CC(=O)O)NC(=O)[C@H](Cc3ccc(OCC(=O)O)cc3)NC(=O)[C@H](CCCNC(=N)N)NC(=O)CSC[C@@H](C(=O)N[C@@H](CCN)C(=O)NCCCCCCCCCCC(=O)O)NC(=O)[C@H](CO)NC(=O)[C@H](C(C)C)NC(=O)[C@H](CC3CCCCC3)NC(=O)[C@H](CCN)NC(=O)[C@@H](CC(C)C)NC(=O)[C@H](CCCN)NC(=O)[C@H](Cc3ccc(OCC(=O)O)cc3)NC(=O)[C@H](Cc3ccc(-c4ccccc4)cc3)NC(=O)[C@H](Cc3ccc(OCC(=O)O)cc3)NC2=O)c1` [Compound 2083] ({CH2CO}-RY(Carboxymethyl)D[Phe(3-Me)]Y(Carboxymethyl)[Bip]Y(Carboxymethyl)[Orn][dL][Dab][Cha]VSC[Dab][Aun]-OH; thioether N-14), the concentration for half-maximal inhibition (IC50) is 8.3 nM.

Regarding `Cc1cccc(C[C@@H]2NC(=O)[C@H](CC(=O)O)NC(=O)[C@H](Cc3ccc(OCC(=O)O)cc3)NC(=O)[C@H](CN)NC(=O)CSC[C@@H](C(=O)N[C@@H](CCN)C(=O)NCCCCCCCCCCC(=O)O)NC(=O)[C@H](CO)NC(=O)[C@H](C(C)C)NC(=O)[C@H](CC3CCCCC3)NC(=O)[C@H](CCN)NC(=O)[C@@H](CC(C)C)NC(=O)[C@H](CCCN)NC(=O)[C@H](Cc3ccc(OCC(=O)O)cc3)NC(=O)[C@H](Cc3ccc(-c4ccccc4)cc3)NC(=O)[C@H](Cc3ccc(OCC(=O)O)cc3)NC2=O)c1` [Compound 2084] ({CH2CO}-[Dap]Y(Carboxymethyl)D[Phe(3-Me)]Y(Carboxymethyl)[Bip]Y(Carboxymethyl)[Orn][dL][Dab][Cha]VSC[Dab][Aun]-OH; thioether N-14), the IC50 is 12.6 nM.

In the case of `Cc1cccc(C[C@@H]2NC(=O)[C@H](CC(=O)O)NC(=O)[C@H](Cc3ccc(OCC(=O)O)cc3)NC(=O)[C@H](CCCNC(=N)N)NC(=O)CSC[C@@H](C(=O)N[C@@H](CCN)C(=O)NCCCCCCCCCCC(=O)O)NC(=O)[C@H]([C@@H](C)O)NC(=O)[C@H](C(C)C)NC(=O)[C@H](CC3CCCCC3)NC(=O)[C@H](CCN)NC(=O)[C@@H](CC(C)C)NC(=O)[C@H](CCCN)NC(=O)[C@H](Cc3ccc(OCC(=O)O)cc3)NC(=O)[C@H](Cc3ccc(-c4ccccc4)cc3)NC(=O)[C@H](Cc3ccc(OCC(=O)O)cc3)NC2=O)c1` [Compound 2085] ({CH2CO}-RY(Carboxymethyl)D[Phe(3-Me)]Y(Carboxymethyl)[Bip]Y(Carboxymethyl)[Orn][dL][Dab][Cha]VTC[Dab][Aun]-OH; thioether N-14), the IC50 was determined as 8.6 nM.

For the compound `Cc1cccc(C[C@@H]2NC(=O)[C@H](CC(=O)O)NC(=O)[C@H](Cc3ccc(OCC(=O)O)cc3)NC(=O)[C@H]([C@@H](C)O)NC(=O)CSC[C@@H](C(=O)N[C@@H](CCN)C(=O)NCCCCCCCCCCC(=O)O)NC(=O)[C@H]([C@@H](C)O)NC(=O)[C@H](C(C)C)NC(=O)[C@H](CC3CCCCC3)NC(=O)[C@H](CCN)NC(=O)[C@@H](CC(C)C)NC(=O)[C@H](CCCN)NC(=O)[C@H](Cc3ccc(OCC(=O)O)cc3)NC(=O)[C@H](Cc3ccc(-c4ccccc4)cc3)NC(=O)[C@H](Cc3ccc(OCC(=O)O)cc3)NC2=O)c1` [Compound 2086] ({CH2CO}-TY(Carboxymethyl)D[Phe(3-Me)]Y(Carboxymethyl)[Bip]Y(Carboxymethyl)[Orn][dL][Dab][Cha]VTC[Dab][Aun]-OH; thioether N-14), the half-maximal inhibitory concentration (IC50) was 10.2 nM.
